The text below walks through data of patent US20260174829A1, “METHODS OF REDUCING TYPE 2 CYTOKINE-MEDIATED INFLAMMATION USING NEUROMEDIN PEPTIDES” (Rutgers, The State University of New Jersey, priority 2018, published 2026).

In one experiment the test system is lung ILC2s. In words: Sort-purified lung ILC2 in vitro cultures with Nmb, IL-5/IL-13 ELISA. In kind it is cell-based, mouse. The method, then: FIGS. 6A-6E. Nmb suppresses type 2 cytokine responses. (A), Nb-infected mice were treated with PBS or Nmb (i.t.) and ILC2s in the BAL were quantified. (B) Expression of IL-5 and IL-13 in the lungs of PBS or Nmb-treated mice was determined on day 7 post-Nb by Real-time PCR. (C) Eosinophils in the BAL were quantified and (D) worm burdens were determined on day 7 post-Nb infection. ILC2s were sort-purified from the lungs of control or baso-dep mice on day 7 post-Nb and cultured (O/N) with IL-2 and IL-7 in the presence or absence of Nmb and (E) IL-5 and IL-13 levels in culture supernatants were determined by ELISA. P values were determined by two-tailed Student's t-tests.
FIGS. 10A-10B. NMB inhibits type 2 cytokine production from IL-33 activated ILC2. ILC2s were sort-purified from the lungs of Nb-infected mice (day 7) and cultured with survival cytokines (IL-2, IL-7) and in the presence or absence of Nmb and/or IL-33. Following overnight culture, supernatants were tested for the presence of IL-5 (FIG. 10A) and IL-13 (FIG. 10B) by standard ELISA. Statistical comparisons were done using a Student's t-test.
Lung cells were isolated from the lungs of WT or basophil-depleted mice on day 7 post-N. brasiliensis infection. ILC populations (CD45^+Lin^−CD90^+CD127^+) were sort-purified and 10,000 cells were cultured in the presence of 100 ng/mL of IL-2, IL-7 and vehicle (PBS) or 10 μg/mL of Neuromedin B for 24 hours. IL-5 and IL-13 were quantified in cell-free supernatants by ELISA.
These studies illustrate that Nb-induced ILC2 responses are exaggerated in the absence of basophils. […] However, ILC2 responses are also known to be regulated by several other factors following a Nb challenge. Specifically, IL-33 is reported to be a critical regulator of lung ILC2 responses post-Nb infection (24). To address whether altered ILC2 activity in the absence of basophils is a result of reduced availability of IL-33, rather than alterations in NMB-NMBR signaling pathways, ILC2s were sort-purified from the lungs of Nb-infected mice (day 7) and cultured with survival cytokines (IL-2, IL-7) and/or IL-33 and NMB. Following overnight culture, supernatants were tested for the presence of IL-5 and IL-13 by standard ELISA. Statistical comparisons were done using a Student's t-test.
(In general: ELISA stands for enzyme-linked immunosorbent assay.)

The subject of experiment [1] is papain-induced allergic airway inflammation. In words: Papain-induced allergic airway inflammation, Nmb i.t. Conditions: papain-challenged mice, Nmb i.t. vs PBS, lung. Format: in vivo, mouse. The method, then:
FIGS. 7A-7I. Nmb treatment is sufficient to suppress allergic airway inflammation. Mice challenged with papain were treated with PBS or Nmb (i.t.) and (A) Lung ILC2s, (B) IL-5+ and IL-13+ ILC2s, and (C) eosinophils were evaluated. […] Mesenteric lymph nodes (MLNs) were isolated on day 7 post-Nb and single cells suspensions were treated with anti-CD3 and anti-CD28 in the presence or absence of Nmb for 48 hours and (E), IL-5 and (F) IL-13 were quantified in cell-free supernatants by ELISA. (F-I), Modified versions of Nmb (see Table 2) were tested for their ability to alter IL-5 and IL-13 production from anti-CD3 and anti-CD28 MLN cells isolated on day 7 post-Nb. P values were determined by two-tailed Student's t-tests. Blue asterisks represent comparisons between media treated controls and native Nmb. Red asterisks represent comparisons between media treated controls and modified version of Nmb as described in Table 2. (*,p<0.05), (**,p<0.01), (***,p<0.001) or (F-I).
A well-established model of papain-induced allergic airway inflammation known to be dependent on ILC2s was utilized (19, 20). Mice treated with papain presented with elevated percentages of ILC2s (FIG. 7A), elevated expression of IL-5 and IL-13 by ILC2s (FIG. 7B) and lung eosinophilia (FIG. 7C). […] Thus, Nmb negatively regulate ILC2 responses both in vivo and in vitro.

[2] abbreviates: ILC2s day 7 post-Nb, IL-2 and IL-7, overnight, no IL-33, ELISA.
Where [3] appears, read: ILC2s from basophil-deficient Nb-infected mice, overnight with IL-2 and IL-7, ELISA.
Setting [4] is: ILC2s from basophil-sufficient Nb-infected mice, overnight with IL-2 and IL-7, ELISA.

In the case of H2N-GNLWATGHFM-amide [Nmb], the “type 2 cytokines (IL-5 and IL-13) from IL-33 activated ILC2s” value in the experiment with lung ILC2s (ILC2s day 7 post-Nb, IL-2, IL-7 and IL-33, overnight, ELISA) is “significant reductions”. Moreover, in the experiment on lung ILC2s (setting [2]), the “IL-5 production from ILC2s at steady-state” value was “significantly reduce” and the “IL-13 production from ILC2s at steady-state” value is reported as “significantly reduce”. In the experiment on lung ILC2s (setting [3]), the “IL-5 production by ILC2s (significantly reduced or not)” value is “not” and the “IL-13 production by ILC2s (significantly reduced or not)” value is recorded as “not”. Moreover, in the experiment on lung ILC2s (setting [4]), the “IL-5 production by ILC2s” value is on record as “significantly reduced” and the “IL-13 production by ILC2s” value was “significantly reduced”. Further, in experiment [1], the “papain-induced ILC2 responses” value is listed as “sufficient to reduce” and the papain-induced eosinophilia entry is “sufficient to reduce”.
